Experimental data reported in patent US20130096088A1, “Inhibitors of Protein Tyrosine Kinase Activity” (METHYLGENE INC., priority 2011, published 2013).

How the values were obtained:
[1] = biological target: T1, VEGFR2 (KDR) (Homo sapiens, UniProt P35968); test: In vitro receptor tyrosine kinase assay (VEGF receptor KDR), DELFIA; assay type: biochemical; settings: recombinant GST-VEGFR2 806-1356, ATP 0.6 uM; read-out: VEGFR IC50UM
T1 construct: made in house; host or cells: Sf9 cells (Spodoptera frugiperda), baculovirus
T1 sequence (P35968 806-1356): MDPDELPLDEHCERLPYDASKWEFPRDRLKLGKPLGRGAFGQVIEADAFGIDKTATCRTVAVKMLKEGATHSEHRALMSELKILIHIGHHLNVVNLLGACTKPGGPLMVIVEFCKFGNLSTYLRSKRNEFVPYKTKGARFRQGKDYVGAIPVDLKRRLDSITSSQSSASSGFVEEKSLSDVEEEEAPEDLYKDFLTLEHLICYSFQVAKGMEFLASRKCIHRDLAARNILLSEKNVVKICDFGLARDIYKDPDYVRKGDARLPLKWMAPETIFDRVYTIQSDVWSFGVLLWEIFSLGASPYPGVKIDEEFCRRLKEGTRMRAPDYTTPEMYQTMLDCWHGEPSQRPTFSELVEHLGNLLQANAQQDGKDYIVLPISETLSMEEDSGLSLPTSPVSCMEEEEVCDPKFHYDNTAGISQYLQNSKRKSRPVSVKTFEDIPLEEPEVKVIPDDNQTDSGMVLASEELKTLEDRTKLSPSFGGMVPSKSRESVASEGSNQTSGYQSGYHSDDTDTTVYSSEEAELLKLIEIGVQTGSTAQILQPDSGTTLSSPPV
Text: In Vitro Receptor Tyrosine Kinase Assay (VEGF Receptor KDR)
This test measures the ability of compounds to inhibit the enzymatic activity of recombinant human VEGF receptor enzymatic activity.
A 1.6-kb cDNA corresponding to the catalytic domain of VEGFR2 (KDR) (Genbank accession number AF035121 amino acid 806 to 1356) is cloned into the Pst I site of the pDEST20 Gateway vector (Invitrogen) for the production of a GST-tagged version of that enzyme. This construct is used to generate recombinant baculovirus using the Bac-to-Bac™ system according to the manufacturer's instructions (Invitrogen).
The GST-VEGFR2806-1356 protein is expressed in Sf9 cells (Spodoptera frugiperda) upon infection with recombinant baculovirus construct. Briefly, Sf9 cells grown in suspension and maintained in serum-free medium (Sf900 II supplemented with gentamycin) at a cell density of about 2×10^6 cells/ml are infected with the above-mentioned viruses at a multiplicity of infection (MOI) of 0.1 during 72 hours at 27° C. with agitation at 120 rpm on a rotary shaker. Infected cells are harvested by centrifugation at 398 g for 15 min. Cell pellets are frozen at −80° C. until purification is performed.
All steps described in cell extraction and purification are performed at 4° C. Frozen Sf9 cell pellets infected with the GST-VEGFR2806-1356 recombinant baculovirus are thawed and gently resuspended in Buffer A (PBS pH 7.3 supplemented with 1 μg/ml pepstatin, 2 μg/ml Aprotinin and leupeptin, 50 μg/ml PMSF, 50 μg/ml TLCK and 10 μM E64 and 0.5 mM DTT) using 3 ml of buffer per gram of cells. Suspension is Dounce homogenized and 1% Triton X-100 is added to the homogenate after which it is centrifuged at 22500 g, 30 min., 4° C. The supernatant (cell extract) is used as starting material for purification of GST-VEGFR2806-1356.
The supernatant is loaded onto a GST-agarose column (Sigma) equilibrated with PBS pH 7.3. Following a four column volume (CV) wash with PBS pH 7.3+1% Triton X-100 and 4 CV wash with buffer B (50 mM Tris pH 8.0, 20% glycerol and 100 mM NaCl), bound proteins are step eluted with 5 CV of buffer B supplemented with 5 mM DTT and 15 mM glutathion. GST-VEGFR2806-1356 enriched fractions from this chromatography step are pooled based on U.V. trace i.e. fractions with high O.D.280. Final GST-VEGFR2806-1356 protein preparations concentrations are about 0.7 mg/ml with purity approximating 70%. Purified GST-VEGFR2806-1356 protein stocks are aliquoted and frozen at −80° C. prior to use in enzymatic assay.
Inhibition of VEGFR/KDR is measured in a DELFIA™ assay (Perkin Elmer). The substrate poly(Glu4,Tyr) is immobilized onto black high-binding polystyrene 96-well plates. The coated plates are washed and stored at 4° C. During the assay, the enzyme is pre-incubated with inhibitor and Mg-ATP on ice in polypropylene 96-well plates for 4 minutes, and then transferred to the coated plates. The subsequent kinase reaction takes place at 30° C. for 10-30 minutes. ATP concentrations in the assay are 0.6 uM for VEGFR/KDR (2× the Km). Enzyme concentration is 5 nM. After incubation, the kinase reactions are quenched with EDTA and the plates are washed. Phosphorylated product is detected by incubation with Europium-labeled anti-phosphotyrosine MoAb. After washing the plates, bound MoAb is detected by time-resolved fluorescence in a Gemini SpectraMax reader (Molecular Devices). Compounds are evaluated over a range of concentrations, and IC50 values (concentration of compounds giving 50% inhibition of enzymatic activity) are determined.

[2] = test system: laser-induced choroidal neovascularization (CNV); test: In vivo choroidal neovascularization (CNV) model; set-up: species or system rat; settings: Rattus norvegicus, 240 h; Brown-Norway rats, dose 3 nmol/eye, injection on Day 3, CNV area on Day 10; read-out: Inhibition of CNV Progression (%)
Text: In Vivo Choroidal Neovascularization (CNV) Model This test measures the capacity of compounds to inhibit CNV progression. CNV is the main cause of severe vision loss in patients suffering from age-related macular degeneration (AMD). Male Brown-Norway rats (Charles River Japan Co., Ltd.) were used in these studies. Rats were anesthetized by intraperitoneal injection of pentobarbital, and the right pupil was dilated with 0.5% tropicamide and 0.5% phenylephrine hydrochloride. The right eye received 6 laser burns between retinal vessels using a slit lamp delivery system of Green laser Photocoagulator (Nidex Inc., Japan), and microscope slide glass with 10 mg/mL hyaluronic acid (SIGMA) used as a contact lens. The laser power was 200 mW for 0.1 second and spot diameter was 100 μm. At the time of laser burn, bubble production was observed; which is an indication of rupture of Bruch's membrane which is important for CNV generation. After animals were anesthetized, and the right pupil dilated (as mentioned above), the right eye of the animal received the compound or vehicle by an injection (3 μL/eye) at doses of 3 or 10 nmol/eye on Day 3. The compounds were dissolved or suspended in CBS, PBS, or other adequate vehicles before injection. On Day 10, the animals were anesthetized with ether, and high molecular weight fluorescein isothiocyanate (FITC)-dextran (SIGMA, 2×10^6 MW) was injected via a tail vein (20 mg/rat). About 30 min after FITC-dextran injection, animals were euthanized by ether or carbon dioxide, and the eyes were removed and fixed with 10% formaline neutral buffer solution. After over 1 hour of fixation, RPE-choroid-sclera flat mounts were obtained by removing cornea, lens and retina from the eyeballs. The flat mounts were mounted in 50% glycerol on a microscope slide, and the portion burned by laser was photographed using a fluorescence microscope (Nikon Corporation, excitation filter: 465-495 nm, absorption filter: 515-555 nm). The CNV area was obtained by measurement of hyper-fluorescence area observed on the photograph using Scion image. The average CNV area of 6 burns was used as an individual value of CNV area, and the average CNV area of compound treated group was compared with that of the vehicle-treated group.

IC50 [1] [nM] | Structure (SMILES) | inhibition in vivo at 3 nmol/eye [2] [%]
24 | COCCOCCOCCOCCOc1ccccc1NCc1ccc(-c2cc3nccc(Oc4ccc(NC(=O)NC5CC5)cc4F)c3s2)nc1 [Compound 38, 1-(4-(2-(5-((2-(2,5,8,11-Tetraoxamidecan-13-yloxy)phenylamino)methyl)pyridin-2-yl)thieno[3,2-b]pyridin-7-yloxy)-3-fluorophenyl)-3-cyclopropylurea] | –
13 | COCCOCCOCCOCCN(C1CCN(Cc2ccc(-c3cc4nccc(Oc5ccc(NC(=O)NC6CC6)cc5F)c4s3)nc2)CC1)S(C)(=O)=O [Compound 26] | –
13 | COCCOCCOCCOCCNC1CCN(Cc2ccc(-c3cc4nccc(Oc5ccc(NC(=O)NC6CC6)cc5F)c4s3)nc2)CC1 [Compound 22, 1-(4-(2-(5-((4-(2,5,8,11-Tetraoxamidecan-13-ylamino)piperidin-1-yl)methyl)pyridin-2-yl)thieno[3,2-b]pyridin-7-yloxy)-3-fluorophenyl)-3-cyclopropylurea] | –
12 | COCCOCCOCCOCC(=O)N1CCN(Cc2ccc(-c3cc4nccc(Oc5ccc(NC(=O)NC6CC6)cc5F)c4s3)nc2)CC1 [Compound 47] | –
107 | COCCOCCOCCOCCOCCn1cc(-c2cc3nccc(Oc4ccc(NC(=O)NC5CC5)cc4F)c3s2)nn1 [Compound 33, 1-(4-(2-(1-(2,5,8,11,14-Pentaoxahexadecan-16-yl)-1H-1,2,3-triazol-4-yl)thieno[3,2-b]pyridin-7-yloxy)-3-fluorophenyl)-3-cyclopropylurea] | –
13 | O=C(Nc1ccc(Oc2ccnc3cc(-c4ccc(CN5CCOCCOCCOCCOCCOCC5)cn4)sc23)c(F)c1)NC1CC1 [Compound 8, 1-(4-(2-(5-((1,4,7,10,13-Pentaoxa-16-azacyclooctadecan-16-yl)methyl)pyridin-2-yl)thieno[3,2-b]pyridin-7-yloxy)-3-fluorophenyl)-3-cyclopropylurea] | –
13 | CC(C)[C@H](N)C(=O)N[C@H](C(=O)OCC(=O)N1CCN(Cc2ccc(-c3cc4nccc(Oc5ccc(NC(=O)NC6CC6)cc5F)c4s3)nc2)CC1)C(C)C [Compound 12, (S)-2-(4-((6-(7-(4-(3-Cyclopropylureido)-2-fluorophenoxy)thieno[3,2-b]pyridin-2-yl)pyridin-3-yl)methyl)piperazin-1-yl)-2-oxoethyl 2-((S)-2-amino-3-methylbutanamido)-3-methylbutanoate] | 47
15 | COCCOCCOCCOCCN(C(=O)CO)C1CCN(Cc2ccc(-c3cc4nccc(Oc5ccc(NC(=O)NC6CC6)cc5F)c4s3)nc2)CC1 [Compound 24] | 28.9
20 | COCCOCCOCCOCCOCCC(=O)OCC(=O)N1CCN(Cc2ccc(-c3cc4nccc(Oc5ccc(NC(=O)NC6CC6)cc5F)c4s3)nc2)CC1 [Compound 19] | –
11 | COCCOCCOCCOCCC(=O)N1CCN(Cc2ccc(-c3cc4nccc(Oc5ccc(NC(=O)NC6CC6)cc5F)c4s3)nc2)CC1 [Compound 46, 1-(4-(2-(5-((4-2,5,8,11-Tetraoxatetradecanepiperazin-1-yl)methyl)pyridin-2-yl)thieno[3,2-b]pyridin-7-yloxy)-3-fluorophenyl)-3-cyclopropylurea] | 24.8
18 | CCNC(=O)N(CCOCCOCCOCCOC)C1CCN(Cc2ccc(-c3cc4nccc(Oc5ccc(NC(=O)NC6CC6)cc5F)c4s3)nc2)CC1 [Compound 23, 1-(4-(2-(5-((4-Ethylaminocarbonyl-(2,5,8,11-tetraoxamidecan-13-ylamino)piperidin-1-yl)methyl)pyridin-2-yl)thieno[3,2-b]pyridin-7-yloxy)-3-fluorophenyl)-3-cyclopropylurea] | 44.2
13 | COCCOCCOCCOCCOCC(=O)N1CCN(Cc2ccc(-c3cc4nccc(Oc5ccc(NC(=O)NC6CC6)cc5F)c4s3)nc2)CC1 [Compound 48] | –
6 | COCCOCCOCCOCCC(=O)OCC(=O)N1CCN(Cc2ccc(-c3cc4nccc(Oc5ccc(NC(=O)NC6CC6)cc5F)c4s3)nc2)CC1 [Compound 18] | 42.9
13 | COCCOCCOCCOCCOCCOC(=O)N1CCN(Cc2ccc(-c3cc4nccc(Oc5ccc(NC(=O)NC6CC6)cc5F)c4s3)nc2)CC1 [Compound 52] | –
2 | COCCOCCOCCNC(=O)N1CCN(Cc2ccc(-c3cc4nccc(Oc5ccc(NC(=O)NC6CC6)cc5F)c4s3)nc2)CC1 [Compound 54, 4-((6-(7-(4-(3-Cyclopropylureido)-2-fluorophenoxy)thieno[3,2-b]pyridin-2-yl)pyridin-3-yl)methyl)-N-(2-(2-(2-methoxyethoxy)ethoxy)ethyl)piperazine-1-carboxamide] | –
24 | COCCOCCOCCOCCOc1cccc(NCc2ccc(-c3cc4nccc(Oc5ccc(NC(=O)NC6CC6)cc5F)c4s3)nc2)c1 [Compound 40] | –
10 | CC(C)[C@H](NC(=O)CN)C(=O)OCC(=O)N1CCN(Cc2ccc(-c3cc4nccc(Oc5ccc(NC(=O)NC6CC6)cc5F)c4s3)nc2)CC1 [Compound 13] | 41.6
3 | COCCOCCOCC(=O)N1CC(N(CC(=O)O)Cc2ccc(-c3cc4nccc(Oc5ccc(NC(=O)NC6CC6)cc5F)c4s3)nc2)C1 [Compound 45, 2-(((6-(7-(4-(3-Cyclopropylureido)-2-fluorophenoxy)thieno[3,2-b]pyridin-2-yl)pyridin-3-yl)methyl)(1-(2-(2-(2-methoxyethoxy)ethoxy)acetyl)azetidin-3-yl)amino)acetic acid] | –
53 | COCCOCCOCCOCCN(C(=O)C(F)(F)F)C1CCN(Cc2ccc(-c3cc4nccc(Oc5ccc(NC(=O)NC6CC6)cc5F)c4s3)nc2)CC1 [Compound 25] | 20.9
2 | COCCOCCOCCOCCOCCNC(=O)N1CCN(Cc2ccc(-c3cc4nccc(Oc5ccc(NC(=O)NC6CC6)cc5F)c4s3)nc2)CC1 [Compound 56] | –
2 | COCCOCCOCCOCCNC(=O)N1CCN(Cc2ccc(-c3cc4nccc(Oc5ccc(NC(=O)NC6CC6)cc5F)c4s3)nc2)CC1 [Compound 55] | –
